{
  "source": "patent EP0323147A2",
  "about": "“1-Aralkyl-1,2-dihydropyrimidine-2-thiones” (SMITHKLINE BECKMAN CORPORATION, priority 1987, dated 1989)",
  "key": {"DBH": {"biological_target": "T1, DBH (Homo sapiens, UniProt P09172)", "T1 sequence (P09172 1-617)": "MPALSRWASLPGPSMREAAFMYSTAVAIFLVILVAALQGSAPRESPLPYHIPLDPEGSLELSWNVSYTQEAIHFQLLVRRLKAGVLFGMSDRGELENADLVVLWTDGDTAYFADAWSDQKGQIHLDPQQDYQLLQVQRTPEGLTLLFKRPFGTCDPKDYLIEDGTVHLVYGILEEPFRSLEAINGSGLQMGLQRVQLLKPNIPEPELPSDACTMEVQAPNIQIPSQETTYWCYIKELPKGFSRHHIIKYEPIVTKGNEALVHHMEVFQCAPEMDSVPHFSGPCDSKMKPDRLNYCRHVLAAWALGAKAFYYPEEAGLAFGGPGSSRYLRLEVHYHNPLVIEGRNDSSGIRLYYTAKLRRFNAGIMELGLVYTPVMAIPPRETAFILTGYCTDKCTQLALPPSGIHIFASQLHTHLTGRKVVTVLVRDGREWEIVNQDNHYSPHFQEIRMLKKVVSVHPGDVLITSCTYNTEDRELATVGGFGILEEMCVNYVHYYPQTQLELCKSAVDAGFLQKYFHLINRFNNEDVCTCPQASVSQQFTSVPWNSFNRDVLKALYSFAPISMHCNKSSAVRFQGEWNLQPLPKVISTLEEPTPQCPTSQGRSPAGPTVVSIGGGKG", "assay": "in vitro DBH inhibition, conversion of tyramine to octopamine in the presence of DBH", "type": "biochemical", "conditions": "for percent inhibition: at 10⁻⁵ M compound concentration, IC₅₀ not determined", "method": "Because the compounds of structure (I) inhibit DBH activity they have therapeutic value as diuretic, natriuretic, cardiotonic, antihypertensive, and vasodilatoragents, as well as antiulcerogenic and anti-Parkinson agents. Listed in Table I are the compounds of the invention that were tested for in vitro DBH inhibition by a standard procedure for assaying conversion of tyramine to octopamine in the presence of DBH. J.J. Pisano, et al., Biochim. Biophys. Acta, 43, 566-568 (1960). Octopamine was assayed following sodium periodate oxidation to p-hydroxy-benzaldehyde by measuring spectrophotometric absorbance at 330 nm. In Table I, inhibition is given in micromolar concentration of compound at which DBH activity was halved (IC₅₀). […]"}, "[1]": {"tested_on": "spontaneously hypertensive rats", "assay": "mean arterial blood pressure in spontaneously hypertensive rats after oral dosing", "type": "in vivo", "conditions": "50 mg/kg orally, compared to vehicle-treated controls", "method": "Further, spontaneously hypertensive rats were treated with a suspension or solution of 1-(3,5-fluorobenzyl)-1,2,-dihydropyrimidine-2-thione hydrochloride at a dose of 50 mg/kg orally and mean arterial blood pressure was monitored for 260 minutes using indwelling cannulae in the tail arteries. […] Maximal blood pressure reduction was approximately 25 to 30 mm Hg."}, "[2]": {"conditions": "literature, Teresawa et al., Japan Cir. J. 35, 339 (1971); cited from earlier work"}},
  "note": "Marks after values point to notes of the source that are not given here.",
  "data": [
    {"smiles": "Cl.Fc1cc(F)cc(Cn2cccnc2=S)c1", "note": "[1-(3,5-Difluorobenzyl)-1,2-dihydropyrimidine 2-thione Hydrochloride]", "values": [
      {"measurement": "IC50", "setting": "DBH; concentration of compound at which DBH activity was halved, read-out: DBH IC₅₀", "result": 2800, "unit": "nM"},
      {"measurement": "time after treatment to significant blood pressure reductions", "setting": "[1]", "result": "≤ 30", "unit": "min"}
    ]},
    {"smiles": "Cl.Fc1cccc(Cn2cccnc2=S)c1", "note": "[1-(3-Fluorobenzyl)-1,2-dihydropyrimidine 2-thione Hydrochloride]", "values": [
      {"measurement": "percent inhibition", "setting": "DBH", "result": 15, "unit": "%^a"}
    ]},
    {"smiles": "S=c1ncccn1Cc1ccccc1", "note": "[1-benzyl-1,2-dihydropyrimidine-2-thione, 1-Benzyl-1,2-dihydropyrimidine-2 thione]", "values": [
      {"measurement": "percent inhibition", "setting": "DBH", "result": 5, "unit": "%^a"}
    ]},
    {"smiles": "CCCCc1ccc(C(=O)O)nc1", "note": "[fusaric acid]", "values": [
      {"measurement": "toxic effects", "setting": "[2]", "result": "hepatotoxic"}
    ]}
  ]
}
